Laboratory results from patent US20170051149A1, “AZOARYLS AS REVERSIBLY MODULATABLE TUBULIN INHIBITORS” (ECOLE NORMALE SUPERIEURE DE LYON, priority 2014, published 2017).

Columns and labels:
[1] = photoisomerisation: photostationary state, calculated φ(λ) and E(λ), reversible cycling; type: physicochemical
Protocol: In a simple analysis of the PSS(λ) and E(λ), it was approximated that ΦEZ and ΦZE (the quantum efficiencies of the photoisomerisations trans->cis and cis->trans, respectively) are equal and independent of wavelength, and also that the kinetics of spontaneous reversion could be ignored (eg. high-intensity light source). A function φ(λ) was then calculated as per: […]
If ΦEZ and ΦZE are equal and independent of wavelength, φ(λ) gives the true PSS(λ). The wavelength independence of ΦEZ and ΦZE may be an acceptable approximation in regions of relatively strong absorption within the visible spectrum. Their equality may also be an acceptable assumption: since if ΦEZ and ΦZE are unequal but only depend weakly on wavelength in regions of relatively strong absorption, then φ(λ) is a transform of the true PSS(λ); this transform preserves the features of PSS(λ) which were most desired for evaluation in this study as long as ΦEZ and ΦZE are not too different (eg less than a factor of ten difference). Indeed, the calculated φ(λ) were later confirmed by in cellulo experiments to give reliable indications of favourable wavelengths for bulk trans->cis and bulk cis->trans photoisomerisation, which is the benchmark for a suitable analysis of the PSS(λ). The advantages of calculating φ(λ) rather than exhaustively measuring the PSS(λ) experimentally are that (a) the throughput is much faster, (b) the true PSS(λ) may be difficult to achieve at weakly-absorbing wavelengths or with fast-relaxing compounds, (c) the true PSS(λ) may be difficult to measure accurately at wavelengths where one isomer strongly dominates the sample even if both are relatively strongly absorbing, and (d) the variation of PSS(λ) with changes in the local biological microenvironment (polarity, pH etc) may anyway be larger than the error incurred by the assumption φ(λ)═PSS(λ).
Also following the assumption that ΦEZ and ΦZE are equal and independent of wavelength, a photoisomerisation efficiency E(λ) was calculated as per:
E(λ)=[εE(λ)+εZ(λ)]/[εE(390)+εZ(390)]
Larger values of E(λ) therefore denote higher efficiency photoisomerisation (less photon flux is required to approach the PSS(λ)). E(λ) was parametrised to the absorption coefficients at 390 nm, since typically that wavelength gave satisfactorily strong absorption and efficient photoisomerisation. It should be noted that E(λ) are not intercomparable between different compounds. This reflects the realistic scenario that the ΦEZ (or the ΦZE) of two arbitrarily chosen compounds may differ by a significant amount, even if the approximation that ΦEZ and ΦZE are equal and independent of wavelength applies independently to each compound.
A(λstrong) was measured over time in the UV-Vis cuvette in non-degassed PBS left open to the atmosphere, […], at 37° C., while the monochromator was used to apply λirrad alternating between two values λ1 and λ2, chosen to induce net trans->cis and net cis->trans isomerisation respectively. Typical results are presented for compound I.1 (FIG. 3). The absorbance of I.1 (18 μM) was measured at λstrong=378 nm, while the irradiating wavelength was held alternately at λ1=388 nm (50 s; bulk trans->cis) then λ2=508 nm (180 s, bulk cis->trans). Higher absorbance corresponds to a greater amount of trans isomer: an absorbance of 0.27 here corresponds to an approximately 5:1 ratio of trans:cis isomer in the sample, and an absorbance of 0.12 here corresponds to an approximately 1:2 ratio of trans:cis isomer in the sample. […] Typically, compounds of the invention could be bulk-photoisomerised hundreds of times over a timescale of hours (50 representative cycles are shown in FIG. 3 for I.1), such that the majority species in a sample was photocontrollably alternated between the trans-isomer and the cis-isomer. […]

HeLa cells = assay: cytotoxicity by crystal violet staining; type: cell-based; conditions: 40 h
Protocol: Seven of the compounds according to the invention were selected for biological tests. Their cytotoxicity was assessed using crystal violet staining as adapted from standard procedure^[31]. Briefly, HeLa cells were seeded on 96-well plates, treated with the given concentrations of the selected compound, and exposed or not to the pulse protocol of illumination with light at 390 nm (pulses of 75 ms every 15 s). After 40 h cells were stained with crystal violet solution (0.5% crystal violet in 20% methanol) for 10 min. Unbound crystal violet was removed by rinsing with distilled water and cells were air-dried. Crystal violet was subsequently eluted from cells with 0.1 M sodium citrate in 50% ethanol. The absorbance of crystal violet is proportional to the cell number and was determined at 590 nm with a FLUOstar Omega microplate reader (BMG Labtech).
Each compound was tested at 6 doses: 100 nM, 500 nM, 1 μM, 2 μM, 5 μM and 10 μM. In order to ensure their solubility in the cell culture media, DMSO was used as a co-solvent, and to provide comparability between all samples the volume of DMSO was adjusted to obtain its final concentration as 1% in the cell culture media for all the compounds at all concentrations tested.
Results presented in Table 4 below are expressed as a fold growth relative to the control growth of the cells treated only with a co-solvent (1% DMSO), and are represented as a mean value from triplicates coming from a representative experiment.

HeLa = assay: membrane permeability, PI uptake in nonpermeabilized cells; type: cell-based; conditions: 70 h
Protocol: (§1) Membrane integrity was assessed as a marker of cellular viability, via examining the uptake of propidium iodide (PI) in nonpermeabilized cells according to a standard protocol. Namely, cells were harvested and incubated with 5 μg/mL PI in PBS containing 2% FCS (foetal calf serum), and immediately analysed by flow cytometry using a FACSCalibur flow cytometer.

MDA-MB-231 = assay: as above; type: cell-based; conditions: 70 h
Protocol: as §1

[2] = 200 nM, 390 nm (1 s every 15 min)
[3] = 600 nM, 390 nm (1 s every 15 min)
[4] = 1.5 μM, 390 nm (1 s every 15 min)
[5] = 5 μM, 390 nm (1 s every 15 min)

## COc1ccc(N=Nc2cc(OC)c(OC)c(OC)c2)cc1O [I.1, 2-methoxy-5-((3,4,5-trimethoxyphenyl)diazenyl)phenol]
[1]
  E(388)/E(508): 0.04
[1]; 390 nm
  E(λ): 1.00
[1]; 390 nm light
  % cis after photoisomerisation from all-trans: approx. 90%
[1]; 410 nm
  E(λ): 0.59
[1]; 450 nm light
  % cis after photoisomerisation from all-trans: approx. 50%
[1]; 475 nm
  E(λ): 0.14
[1]; 490 nm
  E(λ): 0.08
[1]; 505 nm
  E(λ): 0.04
[1]; 525 nm
  E(λ): 0.02
[1]; calculated from εE and εZ
  φ(490): 0.30
  φ(505): 0.23
[1]; subsequent 505 nm light
  % cis after subsequent irradiation: approx. 20%
HeLa cells; 100 nM, 390 nm (75 ms every 15 s)
  mean fold growth: 0.95 fold
HeLa cells; 100 nM, Dark
  mean fold growth: 0.95 fold
HeLa cells; 500 nM, 390 nm (75 ms every 15 s)
  mean fold growth: 0.85 fold
HeLa cells; 500 nM, Dark
  mean fold growth: 0.89 fold
HeLa cells; 1 μM, 390 nm (75 ms every 15 s)
  mean fold growth: 0.43 fold
HeLa cells; 1 μM, Dark
  mean fold growth: 0.87 fold
HeLa cells; 2 μM, 390 nm (75 ms every 15 s)
  mean fold growth: 0.35 fold
HeLa cells; 2 μM, Dark
  mean fold growth: 0.89 fold
HeLa cells; 5 μM, 390 nm (75 ms every 15 s)
  mean fold growth: 0.27 fold
HeLa cells; 5 μM, Dark
  mean fold growth: 0.84 fold
HeLa cells; 10 μM, 390 nm (75 ms every 15 s)
  mean fold growth: 0.35 fold
HeLa cells; 10 μM, Dark
  mean fold growth: 0.75 fold
HeLa; [2]
  mean % cells PI+: 4.5%
HeLa; 200 nM, dark
  mean % cells PI+: 4.5%
HeLa; [3]
  mean % cells PI+: 8.2%
HeLa; 600 nM, dark
  mean % cells PI+: 4.3%
HeLa; [4]
  mean % cells PI+: 46.1%
HeLa; 1.5 μM, dark
  mean % cells PI+: 4.2%
HeLa; [5]
  mean % cells PI+: 73.0%
HeLa; 5 μM, dark
  mean % cells PI+: 5.1%
MDA-MB-231; [2]
  mean % cells PI+: 4.4%
MDA-MB-231; 200 nM, dark
  mean % cells PI+: 5.0%
MDA-MB-231; [3]
  mean % cells PI+: 8.2%
MDA-MB-231; 600 nM, dark
  mean % cells PI+: 4.6%
MDA-MB-231; [4]
  mean % cells PI+: 24.1%
MDA-MB-231; 1.5 μM, dark
  mean % cells PI+: 4.3%
MDA-MB-231; [5]
  mean % cells PI+: 47.2%
MDA-MB-231; 5 μM, dark
  mean % cells PI+: 5.0%

## CCN(CC)c1ccc2c(-c3ccccc3C(=O)N3CCN(CCCOc4c(N=Nc5cc(OC)c(OC)c(OC)c5)ccc(OC)c4C)CC3)c3ccc(=[N+](CC)CC)cc-3oc2c1.CCN(CC)c1ccc2c(-c3ccccc3C(=O)N3CCN(CCCOc4c(N=Nc5cc(OC)c(OC)c(OC)c5)ccc(OC)c4C)CC3)c3ccc(=[N+](CC)CC)cc-3oc2c1.O=C[O-].O=C[O-] [I.25, N-(6-(diethylamino)-9-(2-(4-(3-(3-methoxy-2-methyl-6-((3,4,5-trimethoxyphenyl)diazenyl)phenoxy)propyl)piperazine-1-carbonyl)phenyl)-3H-xanthen-3-ylidene)-N-ethylethanaminium bis(formate) salt]
[1]; irradiation at 554 nm, 33 μM, PBS 20% MeCN, 37° C.
  % trans: 100%
[1]; state before 550 nm irradiation
  % cis before photorelaxation: > 70%
[1]; very low intensity light of 550 nm
  % trans after photorelaxation: > 99%
